Measurements reported in ChEMBL document CHEMBL1201862, “PubChem BioAssay data set” (2004).
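Five compound concentrations were applied to cells in 96-well plates for 48 hours; endpoints were derived by simple linear interpolation of the resulting dose-response curve. The concentration for 50% growth inhibition is given as GI50.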 Calls of active or inactive are those of the source. Rule as the data show it: active = GI50 up to about 1.1 µM and inactive = higher.

How the values were obtained:
Assay in all cases: NCI anticancer screen, dose series, 48 h
[1] = tested on: A549
[2] = tested on: CAKI-1
[3] = tested on: EKVX
[4] = tested on: HCT-116
[5] = tested on: HL-60
[6] = tested on: HOP-92
[7] = tested on: KM-20L2
[8] = tested on: LOX IMVI
[9] = tested on: MOLT-4
[10] = tested on: NCI-H226
[11] = tested on: NCI-H460
[12] = tested on: SK-MEL-5
[13] = tested on: SN12C
[14] = tested on: SNB-75
[15] = tested on: SW-620
[16] = tested on: TK-10
[17] = tested on: NCI-H23
[18] = tested on: SR

Measured: GI50

O=C(Nc1ccccc1)n1cc(-c2ccccn2)c(N2CCOCC2)n1
inactive: [1] 18.8 µM | [2] 13 µM | [3] > 100 µM | [4] 4.29 µM | [5] 2.44 µM | [6] 16.9 µM | [7] 2.68 µM | [8] 5.75 µM | [9] 4.15 µM | [10] 23.8 µM | [11] 4.19 µM | [12] 6.04 µM | [13] 35.2 µM | [14] 3.78 µM | [15] 5.85 µM | [16] > 100 µM

CCCOCN1COCN/C1=N\C#N
inactive: [1] 42.3 µM | [2] > 100 µM | [3] > 100 µM | [4] 84.1 µM | [5] > 100 µM | [6] > 100 µM | [7] 36.2 µM | [8] 24.5 µM | [9] > 100 µM | [10] > 100 µM | [17] > 100 µM | [11] > 100 µM | [12] > 100 µM | [13] > 100 µM | [14] > 100 µM | [15] 14 µM | [16] > 100 µM

Cc1ccc(Sc2ccc(C)cc2[N+](=O)[O-])c([N+](=O)[O-])c1
inactive: [1] > 100 µM | [2] > 10 µM | [3] > 100 µM | [4] > 100 µM | [5] > 100 µM | [6] > 100 µM | [7] > 100 µM | [8] > 100 µM | [9] > 100 µM | [10] > 100 µM | [17] > 100 µM | [11] > 100 µM | [12] > 100 µM | [13] > 100 µM | [14] 46.5 µM | [15] > 100 µM | [16] > 100 µM

COC(=O)C(=O)C(C(=O)C(=O)Nc1ccc(C)cc1C)c1nc2ccccc2nc1O (stereo not drawn)
inactive: [1] 31.7 µM | [2] 21.3 µM | [3] 17.9 µM | [4] 63 µM | [5] 41.8 µM | [7] > 100 µM | [8] 47 µM | [9] 32.4 µM | [10] 37.4 µM | [17] 66.8 µM | [11] 85.5 µM | [12] 58.1 µM | [13] 41.6 µM | [14] 15 µM | [18] 35.8 µM | [15] > 100 µM | [16] 22.1 µM

CC[C@H]1[C@@H](C)C=C[C@@H](C)N1S(=O)(=O)c1ccc(C)cc1
inactive: [1] > 100 µM | [2] > 100 µM | [3] > 100 µM | [4] 51.6 µM | [5] 18.5 µM | [7] > 100 µM | [8] > 100 µM | [9] 79.3 µM | [10] > 100 µM | [17] > 100 µM | [11] > 10 µM | [12] 92 µM | [13] 92.7 µM | [14] > 100 µM | [18] 66.5 µM | [15] > 100 µM
